Test results published in patent US20250179078A1, “INHIBITORS OF NLRP3” (PTC THERAPEUTICS, INC., priority 2022, published 2025).
pIC50: −log10 of the molar value.

biological target: T1, NLRP3 (Homo sapiens, UniProt Q96P20); assay: IL-1β Secretion Assay (NLRP3-dependent IL1β secretion in THP1 cells); format: cell-based; conditions: PMA-differentiated THP-1 cells; compounds incubated 20 h; 2.5 μM Nigericin 3 h; HTRF IL-1β readout; read-out: IC50 IL-1β Inhibition
T1 construct: host or cells: THP-1 cells differentiated with PMA
Description: Monocytic THP-1 cells (ATCC: TIB-202) were maintained in growth media consisting of RPMI 1640 medium (ThermoFisher, Cat #11875-085), 10% FBS (ThermoFisher) and 0.05 mM β-mercaptoethanol (ThermoFisher, Cat #21985-023), according to the provider's instructions. The cell concentration was adjusted to 7.5×10^5 cells/mL, and plated in complete growth media with a final concentration of 100 ng/mL phorbol 12-myristate 13-acetate (PMA, Sigma #P8139). Cells were seeded at 100 µL/well into a 96-well cell culture plate (ThermoFisher Cat #165305) and allowed to differentiate for 24 h in a cell culture incubator at 37° C. with 5% CO2. Cells were washed 1× with 100 ul PBS and replaced with fresh RPMI+5% FBS. Compounds were serial diluted in DMSO with 3 fold dilution for a total of 7 concentrations. Diluted compounds were added to the cells at a ratio of 1:200 and incubated for 20 h. The NLRP3 inflammasome was activated with the addition of 2.5 μM Nigericin (Sigma: Cat #SML1779-1 ml), for 3 h. After incubation, 15 μL of conditioned media was removed and assayed for levels of IL-1β using the HTRF IL-1β assay kit (Cisbio: Cat #62HIL1BPEH) as per the manufacturer's instructions.
Compounds, once produced and prepared according to the present invention, can be assessed in variety of assays to characterize their activities. For example, NLRP3-dependent IL1β secretion was evaluated in THP1 cells. IC50 values of IL1β inhibition were calculated from the plot of percentage of inhibition versus the inhibitor concentration by a logistics fit. TABLE I depict examples of compounds according to generic Formula I. Data which is <1 nM is listed as *****; data 1-10 nM is listed as ****; data 10-100 nM is listed as ***, data 100-300 nM is listed as **, data ≥300 nM is listed as *.

T1 sequence (Q96P20 whole entry): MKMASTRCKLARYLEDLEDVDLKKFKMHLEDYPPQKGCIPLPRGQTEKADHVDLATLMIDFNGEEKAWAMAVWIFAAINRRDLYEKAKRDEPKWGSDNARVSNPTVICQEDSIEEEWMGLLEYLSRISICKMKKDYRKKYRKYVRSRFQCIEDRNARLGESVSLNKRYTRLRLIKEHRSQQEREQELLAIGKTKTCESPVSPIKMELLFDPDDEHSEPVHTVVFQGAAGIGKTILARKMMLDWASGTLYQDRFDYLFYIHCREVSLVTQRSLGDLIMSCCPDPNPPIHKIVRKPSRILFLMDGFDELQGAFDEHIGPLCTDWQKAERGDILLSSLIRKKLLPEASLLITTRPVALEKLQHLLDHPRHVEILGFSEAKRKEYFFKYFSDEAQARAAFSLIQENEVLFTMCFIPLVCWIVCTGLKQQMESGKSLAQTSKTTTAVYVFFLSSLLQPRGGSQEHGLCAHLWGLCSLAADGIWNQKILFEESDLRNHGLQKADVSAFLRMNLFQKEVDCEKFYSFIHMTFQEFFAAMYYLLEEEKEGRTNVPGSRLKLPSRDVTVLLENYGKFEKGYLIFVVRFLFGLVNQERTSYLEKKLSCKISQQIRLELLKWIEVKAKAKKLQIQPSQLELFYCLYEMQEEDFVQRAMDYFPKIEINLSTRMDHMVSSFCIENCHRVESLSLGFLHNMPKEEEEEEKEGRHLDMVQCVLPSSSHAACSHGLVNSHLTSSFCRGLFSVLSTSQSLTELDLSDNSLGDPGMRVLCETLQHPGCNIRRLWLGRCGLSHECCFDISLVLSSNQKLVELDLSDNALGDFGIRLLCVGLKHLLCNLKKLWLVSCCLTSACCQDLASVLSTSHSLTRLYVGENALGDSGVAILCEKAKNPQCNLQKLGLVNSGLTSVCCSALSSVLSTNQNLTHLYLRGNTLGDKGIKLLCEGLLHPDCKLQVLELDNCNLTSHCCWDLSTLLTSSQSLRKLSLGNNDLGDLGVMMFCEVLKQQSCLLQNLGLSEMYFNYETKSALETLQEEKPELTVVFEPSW

pIC50 | Structure (SMILES)
> 9.00 | OCCN1CCC[C@@H](Nc2nnc(-c3ccc(C(F)(F)F)cc3CC(F)(F)F)c3cncn23)C1 [Compound 301]
8.00 to 9.00 | O[C@H]1CCC[C@@H](Nc2nnc(-c3ccc(C4CC4)cc3CC(F)(F)F)c3cncn23)C1 [Compound 353, (1S,3R)-3-({1-[4-cyclopropyl-2-(2,2,2-trifluoroethyl)phenyl]imidazo[1,5-d][1,2,4]triazin-4-yl}amino)cyclohexan-1-ol]
7.00 to 8.00 | COc1ccc(-c2nnc(NCc3cc[nH]n3)n3cncc23)c(OC(F)(F)F)c1 [Compound 234, 1-[4-methoxy-2-(trifluoromethoxy)phenyl]-N-[(1H-pyrazol-3-yl)methyl]imidazo[1,5-d][1,2,4]triazin-4-amine]
8.00 to 9.00 | O=C1NCCC1Nc1nnc(-c2ccc(Cl)cc2OC(F)(F)F)c2cncn12 (stereo not drawn) [Compound 287, 3-({1-[4-chloro-2-(trifluoromethoxy)phenyl]imidazo[1,5-d][1,2,4]triazin-4-yl}amino)pyrrolidin-2-one]
8.00 to 9.00 | O[C@H]1CCC[C@@H](Nc2nnc(-c3ccc(OC(F)F)cc3OC(F)(F)F)c3cncn23)C1 [Compound 245, (1S,3R)-3-({1-[4-(difluoromethoxy)-2-(trifluoromethoxy)phenyl]imidazo[1,5-d][1,2,4]triazin-4-yl}amino)cyclohexan-1-ol]
> 9.00 | CN1CCC[C@@H](Nc2nnc(-c3ccc(Cl)cc3OC(F)F)c3cncn23)C1 [Compound 190, 1-[4-chloro-2-(difluoromethoxy)phenyl]-N-[(3R)-1-methylpiperidin-3-yl]imidazo[1,5-d][1,2,4]triazin-4-amine]
7.00 to 8.00 | Cc1ccc(-c2nnc(N[C@H]3C[C@@H](CO)C3)n3cncc23)c(OC(F)F)c1 [Compound 183, [(1s,3s)-3-({1-[2-(difluoromethoxy)-4-methylphenyl]imidazo[1,5-d][1,2,4]triazin-4-yl}amino)cyclobutyl]methanol]
7.00 to 8.00 | COc1ccc(-c2nnc(N[C@H]3C[C@@](C)(CO)C3)n3cncc23)c(CC(F)(F)F)c1 [Compound 341, [(1s,3s)-3-({1-[4-methoxy-2-(2,2,2-trifluoroethyl)phenyl]imidazo[1,5-d][1,2,4]triazin-4-yl}amino)-1-methylcyclobutyl]methanol]
8.00 to 9.00 | COc1ccc(-c2nnc(N[C@H]3CCCC[C@]3(C)O)n3cccc23)c(OC(F)(F)F)c1 (single isomer, unassigned) [Compound 180]
8.00 to 9.00 | Cc1ccc(-c2nnc(N[C@@H]3CCCC[C@H]3O)n3cncc23)c(CC(F)(F)F)c1 [Compound 286, (1R,2R)-2-({1-[4-methyl-2-(2,2,2-trifluoroethyl)phenyl]imidazo[1,5-d][1,2,4]triazin-4-yl}amino)cyclohexan-1-ol]
8.00 to 9.00 | Cc1cc2c(-c3ccc(C(F)(F)F)cc3CC(F)(F)F)nnc(N[C@@H]3CCCC[C@H]3O)n2n1 [Compound 389, (1R,2R)-2-({2-methyl-4-[2-(2,2,2-trifluoroethyl)-4-(trifluoromethyl)phenyl]pyrazolo[1,5-d][1,2,4]triazin-7-yl}amino)cyclohexan-1-ol]
6.52 to 7.00 | COc1ccc(-c2nnc(NC(C)c3cccnc3)n3cncc23)c(OC(F)(F)F)c1 (single isomer, unassigned) [Compound 308]
8.00 to 9.00 | COc1ccc(-c2nnc(N[C@@H]3CCCC[C@H]3O)n3nc(C)cc23)c(CC(F)(F)F)c1 [Compound 385, (1R,2R)-2-({4-[4-methoxy-2-(2,2,2-trifluoroethyl)phenyl]-2-methylpyrazolo[1,5-d][1,2,4]triazin-7-yl}amino)cyclohexan-1-ol]

The remaining lines, values behind:

Structure (SMILES) | pIC50
CCN1CC[C@@H](O)[C@@H](Nc2nnc(-c3ccc(C(F)(F)F)cc3C(F)(F)F)c3cc(C)cn23)C1 [Compound 134, (3S,4R)-3-({1-[2,4-bis(trifluoromethyl)phenyl]-7-methylpyrrolo[1,2-d][1,2,4]triazin-4-yl}amino)-1-ethylpiperidin-4-ol] | 8.00 to 9.00
CN1C[C@H](F)C[C@@H](Nc2nnc(-c3ccc(C(F)(F)F)cc3C(F)(F)F)c3c(F)ccn23)C1 [Compound 31, 1-[2,4-bis(trifluoromethyl)phenyl]-8-fluoro-N-[(3R,5R)-5-fluoro-1-methylpiperidin-3-yl]pyrrolo[1,2-d][1,2,4]triazin-4-amine] | 8.00 to 9.00
C[C@H](Nc1nnc(-c2ccc(C(F)(F)F)cc2OC(F)F)c2cccn12)c1cccc(O)c1 (single isomer, unassigned) [Compound 103] | 7.00 to 8.00
COc1ccc(-c2nnc(N[C@@H]3CCCN(CCO)C3)n3cccc23)c(OC2CC2)c1 [Compound 143, 2-[(3R)-3-({1-[2-(cyclopropyloxy)-4-methoxyphenyl]pyrrolo[1,2-d][1,2,4]triazin-4-yl}amino)piperidin-1-yl]ethan-1-ol] | 7.00 to 8.00
FC(F)Oc1ccc(-c2nnc(N[C@@H]3CCCOC3)n3cccc23)c(OC(F)(F)F)c1 [Compound 152, 1-[4-(difluoromethoxy)-2-(trifluoromethoxy)phenyl]-N-[(3R)-oxan-3-yl]pyrrolo[1,2-d][1,2,4]triazin-4-amine] | 8.00 to 9.00
CN1CCC[C@@H](Nc2nnc(-c3ccc(C4CC4)cc3OC(F)(F)F)c3cccn23)C1 [Compound 37, 1-[4-cyclopropyl-2-(trifluoromethoxy)phenyl]-N-[(3R)-1-methylpiperidin-3-yl]pyrrolo[1,2-d][1,2,4]triazin-4-amine] | > 9.00
CCN1CCC[C@@H](Nc2nnc(-c3ccc(OC)cc3OC(F)F)c3c(F)ccn23)C1 [Compound 56, 1-[2-(difluoromethoxy)-4-methoxyphenyl]-N-[(3R)-1-ethylpiperidin-3-yl]-8-fluoropyrrolo[1,2-d][1,2,4]triazin-4-amine] | > 9.00
O[C@@H]1COCC[C@H]1Nc1nnc(-c2ccc(C(F)(F)F)cc2CC(F)(F)F)c2cccn12 [Compound 112, (3S,4R)-4-({1-[2-(2,2,2-trifluoroethyl)-4-(trifluoromethyl)phenyl]pyrrolo[1,2-d][1,2,4]triazin-4-yl}amino)oxan-3-ol] | 8.00 to 9.00
CN1CCC[C@@H](Nc2nnc(-c3ccc(C4CC4)cc3OC(F)F)c3cncn23)C1 [Compound 203, 1-[4-cyclopropyl-2-(difluoromethoxy)phenyl]-N-[(3R)-1-methylpiperidin-3-yl]imidazo[1,5-d][1,2,4]triazin-4-amine] | > 9.00
CCN1CCC[C@@H](Nc2nnc(-c3ccc(C(F)(F)F)cc3Cl)c3cc(C)nn23)C1 [Compound 375, 4-[2-chloro-4-(trifluoromethyl)phenyl]-N-[(3R)-1-ethylpiperidin-3-yl]-2-methylpyrazolo[1,5-d][1,2,4]triazin-7-amine] | 8.00 to 9.00
Cc1ccc(-c2nnc(N[C@@H]3CCCC[C@H]3O)n3cccc23)c(OC(F)F)c1 [Compound 136, (1R,2R)-2-({1-[2-(difluoromethoxy)-4-methylphenyl]pyrrolo[1,2-d][1,2,4]triazin-4-yl}amino)cyclohexan-1-ol] | 8.00 to 9.00
CC(CO)N1CCC[C@@H](Nc2nnc(-c3ccc(C(F)(F)F)cc3OC(F)F)c3cccn23)C1 (stereo partly drawn) [Compound 22, 2-[(3R)-3-({1-[2-(difluoromethoxy)-4-(trifluoromethyl)phenyl]pyrrolo[1,2-d][1,2,4]triazin-4-yl}amino)piperidin-1-yl]propan-1-ol] | > 9.00
COc1ccc(-c2nnc(N[C@@H]3CCCN(C)C3)n3cc(C)cc23)c(OC(F)F)c1 [Compound 12, 1-[2-(difluoromethoxy)-4-methoxyphenyl]-7-methyl-N-[(3R)-1-methylpiperidin-3-yl]pyrrolo[1,2-d][1,2,4]triazin-4-amine] | 8.00 to 9.00
Cc1cc2c(-c3ccc(C(F)(F)F)cc3C(F)(F)F)nnc(N[C@@H]3CCOC[C@H]3O)n2c1 [Compound 164, (3S,4R)-4-({1-[2,4-bis(trifluoromethyl)phenyl]-7-methylpyrrolo[1,2-d][1,2,4]triazin-4-yl}amino)oxan-3-ol] | 6.52 to 7.00
O[C@@H]1CCCC[C@H]1Nc1nnc(-c2ccc(C(F)(F)F)cc2OC(F)(F)F)c2cccn12 [Compound 151, (1R,2R)-2-({1-[2-(trifluoromethoxy)-4-(trifluoromethyl)phenyl]pyrrolo[1,2-d][1,2,4]triazin-4-yl}amino)cyclohexan-1-ol] | 8.00 to 9.00
O[C@H]1COCC[C@@H]1Nc1nnc(-c2ccc(C(F)(F)F)cc2CC(F)(F)F)c2cccn12 [Compound 113, (3R,4S)-4-({1-[2-(2,2,2-trifluoroethyl)-4-(trifluoromethyl)phenyl]pyrrolo[1,2-d][1,2,4]triazin-4-yl}amino)oxan-3-ol] | 8.00 to 9.00
CCN1CCC[C@@H](Nc2nnc(-c3ccc(C(F)(F)F)cc3F)c3cccn23)C1 [Compound 20, N-[(3R)-1-ethylpiperidin-3-yl]-1-[2-fluoro-4-(trifluoromethyl)phenyl]pyrrolo[1,2-d][1,2,4]triazin-4-amine] | 8.00 to 9.00
